# Measured values from EP4000618A1, “COMBINATION OF AT LEAST ONE INHIBITOR OF THE XC TRANSPORTER WITH AT LEAST ONE INHIBITOR OF MEMBRANE-BOUND CATALASE FOR INHIBITING AND / OR INACTIVATING TUMOR CELLS” (Motz, Manfred, priority 2020, dated 2022).
# Entries after “also recorded” stand apart in the source; their conditions may differ. Structures can show the parent of a compound that is named as a salt.
# Tested on: humanen Magenkarzinomzellen (MKN-45)
# Test: Apoptosis induction in MKN-45 tumour cells after catalase inhibition; percentage of cells with apoptosis features counted by phase-contrast microscopy
# Assay type: cell-based, human
# Details: for Effect on the consequence of the 3-AT pretreatment (no lag phase, independence from aquaporins): inhibitor present during 1 h pretreatment with 3-AT (Figur 3B)
# Excerpt: Erfindungsgemäß wurden verschiedene Experimente mit humanen Magenkarzinomzellen (MKN-45) durchgeführt. Die experimentellen Einzelheiten der Versuche sind in der Literaturstelle Heinzelmann und Bauer, Biol. Chem. (2010) 391, S. 675-693 detailliert beschrieben. Auf die experimentelle Ausgestaltung wird hiermit ausdrücklich verwiesen.
# In der Literaturstelle Heinzelmann und Bauer sind die Herkunft der jeweiligen Zellen, deren Anzuchtbedingungen, die Apoptoseinduktion und deren Messung beschrieben. Die membranständige Katalase wurde mit 3-Aminotriazol (3-AT) gehemmt. Spezifische Inhibitoren, die die Differenzierung zwischen dem reaktiven NO/Peroxynitritweg und dem HOCI-Weg erlauben, sind weiterhin in der Literaturstelle Heinzelmann und Bauer (a.a.o.) offenbart. Bei den einzelnen Auswertungen wurde die Apoptoseinduktion über die Quantifizierung des Prozentsatzes derjenigen Zellen bestimmt, die die Apoptosemerkmale Kernkondensation, Kernfragmentation und/oder Membrane-Blebbing aufwiesen. Die Quantifizierung erfolgte jeweils mit Hilfe eines Phasenkontrast-Umkehrmikroskops.
# [1] = inhibitor added to 3-AT, whole 3-AT concentration range (Figur 1A, 1C)
# [2] = inhibitor added to 3-AT, higher 3-AT concentration range (Figur 1A, 1B)
smiles,measurement,setting,value
OC[C@@H](O)[C@@H](O)[C@H](O)[C@H](O)CO [Mannitol],Hemmung der Apoptoseinduktion,[1],gehemmt; also recorded: Hemmung der Apoptoseinduktion
[Ag+] [Silberionen],Hemmung der Apoptoseinduktion,"1 h preincubation with 100 mM 3-AT, wash, 3-AT again with Silberionen (Figur 3A)",nicht mehr durch Silberionen zu hemmen
same,Hemmung der Apoptoseinduktion,"1 h preincubation without 3-AT, wash, then 3-AT with Silberionen (Figur 3A)",daher durch Silberionen zu hemmen
same,Hemmung der Apoptoseinduktion,Silberionen 5 µM added before 3-AT 100 mM (Figur 2A),blockiert die Apoptoseinduktion fast vollständig; also recorded: nur dann vollständig wirkt
same,Hemmung der Apoptoseinduktion,"Silberionen 5 µM added later, after 3-AT 100 mM (Figur 2A)",wirken schwächer oder gar nicht
same,Hemmung der Apoptoseinduktion,"Silberionen 5 µM added to 3-AT concentration series (Figur 1D, 4A)",hemmen die Apoptose vollständig; also recorded: durch Silberionen gehemmt; also recorded: blockieren die Apoptoseinduktion vollständig
COc1cccc(C=NCCN=Cc2cccc(OC)c2[O-])c1[O-].[Cl-].[Mn+3] [EUK-134],Hemmung der Apoptoseinduktion,[2],nur in diesem Bereich zur Hemmung; also recorded: hemmt nur die durch höhere Konzentrationen an 3-AT induzierte Apoptose
same,"Effect on the consequence of the 3-AT pretreatment (no lag phase, independence from aquaporins)",,führt die Vorbehandlung nicht zu der unter A gezeigten Konsequenz
O=C(O)c1cc(/N=N/c2ccc(S(=O)(=O)Nc3ccccn3)cc2)ccc1O [Sulfasalazin],Abhängigkeit der Apoptoseinduktion von der Aquaporinwirkung (Hemmbarkeit durch Silberionen),"14 h pretreatment with rising concentrations of Sulfasalazin, then 3-AT (Figur 4B-D)",ersetzt graduell die Wirkung der Aquaporine; also recorded: in steigendem Umfang von der Aktivität der Aquaporine unabhängig
same,Synergieeffekt mit 3-AT,Sulfasalazin and 3-AT given at the same time (Figur 5B),bleibt dieser Synergieeffekt aus; also recorded: nicht ausreichend für die Induktion eines Synergieeffekts
same,Absenkung der 3-AT-Konzentration bei gleichbleibendem Effekt,after Sulfasalazin pretreatment (Figur 4),ca. zehnfacher Absenkung
same,Synergieeffekt mit 3-AT,"pretreatment of the cells with Sulfasalazin, then 3-AT (Figur 5A, 4A vs 4D)",konzentrationsabhängig zu einem Synergieeffekt; also recorded: Synergieeffekt zwischen 3-AT- und Sulfasalazinwirkung
same,Abhängigkeit von der Aquaporinwirkung,"pretreatment with 100 µM Sulfasalazin, then 3-AT (Figur 4D)",vollständig aufgehoben
same,Signalweg der Apoptoseinduktion beim Synergieeffekt,"pretreatment with 100 µM Sulfasalazin, then 3-AT, profile with FeTPPS and Taurin (Figur 6B)",vollständig durch den NO/Peroxynitritweg bedingt; also recorded: lediglich zu einer Verstärkung des NO/Peroxynitritwegs geführt
"COC(=O)[C@@H](N)CCCNC(=N)N[N+](=O)[O-] [L-NAME, N-omega-nitro-L-arginine methylester hydrochloride]",Hemmung der Apoptoseinduktion,"inhibitor added to 3-AT, low 3-AT concentration range (Figur 1B), hydrochloride",zur Hemmung; also recorded: Hemmung der Apoptose im niedrigeren 3-AT Konzentrationsbereich
"Cl.O=S(=O)([O-])c1ccc(-c2c3nc(c(-c4ccc(S(=O)(=O)O)cc4)c4ccc([nH]4)c(-c4ccc(S(=O)(=O)O)cc4)c4nc(c(-c5ccc(S(=O)(=O)O)cc5)c5ccc2[nH]5)C=C4)C=C3)cc1.[Fe] [FeTPPS, 5-, 10-, 15-, 20-Tetrakis(4-sulfonatophenyl)porphyrinato iron(III) chloride]",Hemmung der Apoptoseinduktion,"cells not pretreated, range 3-6 nM 3-AT (Figur 6A)",geringfügigen Anteil des NO/Peroxynitritwegs
same,Hemmung der Apoptoseinduktion,"inhibitor added to 3-AT, low 3-AT concentration range (Figur 1B)",zur Hemmung; also recorded: Hemmung der Apoptose im niedrigeren 3-AT Konzentrationsbereich
"NCCc1ccc(S(=O)(=O)F)cc1 [AEBSF, 4-(2-Aminoethyl)benzenesulfonyl fluoride]",Hemmung der Apoptoseinduktion,[1],gehemmt; also recorded: vollständigen Hemmung der Apoptose
same,"Effect on the consequence of the 3-AT pretreatment (no lag phase, independence from aquaporins)",,führt die Vorbehandlung nicht zu der unter A gezeigten Konsequenz
NCCS(=O)(=O)O [Taurin],Hemmung der Apoptoseinduktion,Taurin added two hours after 3-AT (Figur 2B),sofortigen Abbruch der Apoptoseinduktion; also recorded: erfolgreichen und sofortigen Hemmung der Apoptoseinduktion
same,Steigerung der Apoptose,"cells not pretreated, range 0.7 und 6 mM 3-AT (Figur 6A)",Steigerung der Apoptose
same,Hemmung der Apoptoseinduktion,[2],"im höheren Konzentrationsbereich; also recorded: spezifisch Apoptose hemmen, die durch höhere Konzentrationen an 3-AT induziert wurde"
